pKd: −log10 of the molar value. Residues, ends and D or L forms follow the SMILES beside them.
Target: T1, αvβ3-integrin (Mus musculus, UniProt O54890+P43406)
T1 construct: purchased R&D Systems 7889-AV-050
T1 sequence (P43406 31-988 limits assumed): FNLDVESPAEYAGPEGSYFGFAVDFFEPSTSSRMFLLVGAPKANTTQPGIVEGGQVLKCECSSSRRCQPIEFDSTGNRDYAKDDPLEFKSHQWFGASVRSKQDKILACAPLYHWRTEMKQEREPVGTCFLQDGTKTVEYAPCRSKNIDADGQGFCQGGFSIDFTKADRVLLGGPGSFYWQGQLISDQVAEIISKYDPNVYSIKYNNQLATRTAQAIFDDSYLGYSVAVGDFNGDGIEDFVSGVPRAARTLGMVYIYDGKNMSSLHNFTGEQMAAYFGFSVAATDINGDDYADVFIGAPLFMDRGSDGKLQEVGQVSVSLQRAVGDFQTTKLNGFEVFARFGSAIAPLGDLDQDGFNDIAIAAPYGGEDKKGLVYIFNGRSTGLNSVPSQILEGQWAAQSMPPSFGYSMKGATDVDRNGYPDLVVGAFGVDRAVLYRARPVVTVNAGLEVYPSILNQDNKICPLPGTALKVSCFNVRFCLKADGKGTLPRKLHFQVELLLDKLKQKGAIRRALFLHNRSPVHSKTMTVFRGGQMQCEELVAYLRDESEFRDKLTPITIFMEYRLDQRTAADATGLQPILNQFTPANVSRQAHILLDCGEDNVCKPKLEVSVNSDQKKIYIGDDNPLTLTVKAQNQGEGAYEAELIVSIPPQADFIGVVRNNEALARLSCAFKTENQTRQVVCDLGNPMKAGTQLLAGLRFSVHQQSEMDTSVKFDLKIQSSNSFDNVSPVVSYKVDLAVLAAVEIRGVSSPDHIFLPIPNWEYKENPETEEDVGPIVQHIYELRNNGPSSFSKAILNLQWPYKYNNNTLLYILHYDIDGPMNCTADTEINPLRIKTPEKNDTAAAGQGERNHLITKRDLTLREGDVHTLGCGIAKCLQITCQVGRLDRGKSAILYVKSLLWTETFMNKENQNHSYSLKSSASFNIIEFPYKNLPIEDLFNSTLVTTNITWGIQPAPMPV
T1 sequence (O54890 26-717 limits assumed): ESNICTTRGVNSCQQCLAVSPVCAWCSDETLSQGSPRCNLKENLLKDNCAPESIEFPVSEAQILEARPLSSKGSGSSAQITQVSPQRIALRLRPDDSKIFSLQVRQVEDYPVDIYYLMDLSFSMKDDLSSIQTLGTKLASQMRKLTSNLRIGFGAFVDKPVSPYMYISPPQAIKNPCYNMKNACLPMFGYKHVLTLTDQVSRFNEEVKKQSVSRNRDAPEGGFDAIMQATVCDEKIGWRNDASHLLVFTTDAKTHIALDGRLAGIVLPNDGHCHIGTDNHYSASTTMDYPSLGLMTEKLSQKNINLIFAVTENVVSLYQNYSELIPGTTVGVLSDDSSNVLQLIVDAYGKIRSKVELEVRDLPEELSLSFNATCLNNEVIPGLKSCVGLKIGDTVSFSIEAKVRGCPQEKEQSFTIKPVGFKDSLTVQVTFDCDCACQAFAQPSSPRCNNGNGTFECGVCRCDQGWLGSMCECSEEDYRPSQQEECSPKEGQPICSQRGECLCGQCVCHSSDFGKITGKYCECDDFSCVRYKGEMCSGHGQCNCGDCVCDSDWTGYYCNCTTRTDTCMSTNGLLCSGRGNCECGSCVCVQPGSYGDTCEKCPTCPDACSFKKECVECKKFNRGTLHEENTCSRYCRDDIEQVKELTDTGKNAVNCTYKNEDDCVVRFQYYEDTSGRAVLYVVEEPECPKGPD
Test: Surface plasmon resonance binding to αvβ3-integrin
Settings: Example 2, Biacore; integrin analyte 31.25 to 125 nM; read-out: KD, binding to αvβ3-integrin receptor
Description: For Biacore experiments, recombinant murine (rm) CIRP was purchased from Cubasio Technology LLC (Cat #. CSB-EP613483He0), rmMFG-E8 was purchased from R&D Systems (Cat #2767-MF-050), and auß3-integrin was purchased from R&D Systems (Cat #7889-AV-050). For in vitro studies, recombinant human (rh)- and rmMFG-E8 and rmCIRP was produced by our lab as previously described (4). […] The known AA sequence of DD-2 (157 amino acids long) of murine MFG-E8 was split into ˜15 AA long sequences with a 5 AA long overlap. This portion of the peptide was designed to bind to eCIRP. The 15 AA sequences were then all tagged with three AA long, Arg-Gly-Asp (RGD), designed to bind to the integrin receptor. […] All peptides were screened in vitro for the ability to attenuate eCIRP-induced TNFα production. […]
To examine the direct interaction between rmCIRP and rmMFG-E8, surface plasmon resonance (SPR), OpenSPR (Nicoya), was performed between rmCIRP and rmMFG-E8. rmCIRP was immobilized on carboxyl sensor and rmMFG-E8 was injected as an analyte in concentrations of 15.7 nM to 250 nM. […] To evaluate binding, the analyte was injected into flow cell-1 and flow cell-2 and increasing concentrations and real-time interaction data were analyzed by TraceDrawer (Nicoya). […]

How did the pKd turn out when `CC(C)C[C@H](NC(=O)[C@H](CC(N)=O)NC(=O)[C@H](Cc1c[nH]c2ccccc12)NC(=O)[C@@H](NC(=O)[C@H](CCCCN)NC(=O)[C@H](Cc1ccc(O)cc1)NC(=O)[C@H](CO)NC(=O)[C@H](CO)NC(=O)[C@H](CO)NC(=O)[C@H](CC(=O)O)NC(=O)CNC(=O)[C@@H](N)CCCNC(=N)N)[C@@H](C)O)C(=O)N[C@@H](CCCNC(=N)N)C(=O)N[C@@H](C)C(=O)N[C@@H](Cc1ccccc1)C(=O)NCC(=O)N[C@@H](Cc1c[nH]c2ccccc12)C(=O)N[C@@H](Cc1ccc(O)cc1)C(=O)O` [MOP3, RGDSSSYKTWNLRAFGWY] (H-RGDSSSYKTWNLRAFGWY-OH; N-terminus and C-terminus assumed) was run?
Its pKd is 6.11.

— patent US20240197828A1, “Chimeric molecule to treat sepsis and other inflammatory conditions” (THE FEINSTEIN INSTITUTES FOR MEDICAL RESEARCH, priority 2022, published 2024)
